Source: ChEMBL document CHEMBL3991601, “The target landscape of clinical kinase drugs” (Science, 2017)
Calls of active or inactive are those of the source.

Legend:
[1] = target: T1, Receptor-type tyrosine-protein kinase FLT3 (Homo sapiens, UniProt P36888)
T1 sequence (P36888 whole entry): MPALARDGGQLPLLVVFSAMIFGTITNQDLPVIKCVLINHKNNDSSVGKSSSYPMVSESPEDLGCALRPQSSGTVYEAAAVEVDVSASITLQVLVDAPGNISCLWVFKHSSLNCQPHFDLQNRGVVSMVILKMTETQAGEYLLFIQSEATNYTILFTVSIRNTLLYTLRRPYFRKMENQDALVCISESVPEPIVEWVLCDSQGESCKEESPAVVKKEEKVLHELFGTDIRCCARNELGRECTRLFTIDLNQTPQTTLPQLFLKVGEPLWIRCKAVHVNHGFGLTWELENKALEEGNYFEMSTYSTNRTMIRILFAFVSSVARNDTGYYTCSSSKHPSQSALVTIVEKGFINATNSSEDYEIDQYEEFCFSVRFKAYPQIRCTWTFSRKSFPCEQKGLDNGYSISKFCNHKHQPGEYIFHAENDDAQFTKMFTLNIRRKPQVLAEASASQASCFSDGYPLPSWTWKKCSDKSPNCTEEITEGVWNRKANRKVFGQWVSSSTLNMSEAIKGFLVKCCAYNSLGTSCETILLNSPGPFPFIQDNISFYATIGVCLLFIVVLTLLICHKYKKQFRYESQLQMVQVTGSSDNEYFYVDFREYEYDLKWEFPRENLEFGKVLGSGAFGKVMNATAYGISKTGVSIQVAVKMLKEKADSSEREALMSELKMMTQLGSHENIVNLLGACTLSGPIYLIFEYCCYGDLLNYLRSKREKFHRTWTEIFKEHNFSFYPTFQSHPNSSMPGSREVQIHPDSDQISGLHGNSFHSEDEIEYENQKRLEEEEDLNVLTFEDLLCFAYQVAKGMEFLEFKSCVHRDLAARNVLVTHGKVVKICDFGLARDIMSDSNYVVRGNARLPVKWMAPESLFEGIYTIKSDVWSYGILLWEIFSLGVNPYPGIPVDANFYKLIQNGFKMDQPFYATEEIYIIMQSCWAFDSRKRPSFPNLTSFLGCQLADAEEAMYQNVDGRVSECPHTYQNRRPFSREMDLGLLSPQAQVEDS

[2] = target: Cell division cycle 7-related protein kinase (Homo sapiens, UniProt O00311)
[3] = target: T2, Ephrin type-A receptor 1 (Homo sapiens, UniProt P21709)
T2 sequence (P21709 whole entry): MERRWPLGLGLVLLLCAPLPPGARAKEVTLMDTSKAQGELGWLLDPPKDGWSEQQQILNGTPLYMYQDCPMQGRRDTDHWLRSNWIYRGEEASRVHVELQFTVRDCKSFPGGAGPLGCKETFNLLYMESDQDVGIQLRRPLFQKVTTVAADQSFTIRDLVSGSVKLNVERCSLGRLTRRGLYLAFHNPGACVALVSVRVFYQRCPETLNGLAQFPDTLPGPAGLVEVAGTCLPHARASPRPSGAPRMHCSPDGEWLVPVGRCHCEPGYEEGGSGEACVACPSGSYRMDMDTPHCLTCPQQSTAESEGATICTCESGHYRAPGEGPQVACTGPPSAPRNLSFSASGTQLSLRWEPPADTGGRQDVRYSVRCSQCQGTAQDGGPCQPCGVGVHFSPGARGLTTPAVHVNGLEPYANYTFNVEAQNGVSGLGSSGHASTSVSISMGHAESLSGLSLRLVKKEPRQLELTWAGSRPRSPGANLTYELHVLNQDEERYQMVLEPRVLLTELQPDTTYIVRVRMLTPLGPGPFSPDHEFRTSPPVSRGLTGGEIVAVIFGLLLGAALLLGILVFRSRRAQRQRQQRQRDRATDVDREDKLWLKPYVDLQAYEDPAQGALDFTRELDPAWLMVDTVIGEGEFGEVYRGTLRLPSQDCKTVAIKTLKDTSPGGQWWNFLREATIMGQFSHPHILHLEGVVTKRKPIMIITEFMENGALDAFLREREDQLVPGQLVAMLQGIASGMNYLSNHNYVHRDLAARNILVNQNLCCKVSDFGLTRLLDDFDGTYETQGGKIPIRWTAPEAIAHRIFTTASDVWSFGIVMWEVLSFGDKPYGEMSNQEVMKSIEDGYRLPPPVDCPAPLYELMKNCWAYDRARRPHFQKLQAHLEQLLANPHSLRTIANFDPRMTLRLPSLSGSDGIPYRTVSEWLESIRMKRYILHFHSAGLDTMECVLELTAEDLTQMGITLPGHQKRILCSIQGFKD

[4] = target: T3, Dual specificity protein kinase TTK (Homo sapiens, UniProt P33981)
T3 sequence (P33981 whole entry): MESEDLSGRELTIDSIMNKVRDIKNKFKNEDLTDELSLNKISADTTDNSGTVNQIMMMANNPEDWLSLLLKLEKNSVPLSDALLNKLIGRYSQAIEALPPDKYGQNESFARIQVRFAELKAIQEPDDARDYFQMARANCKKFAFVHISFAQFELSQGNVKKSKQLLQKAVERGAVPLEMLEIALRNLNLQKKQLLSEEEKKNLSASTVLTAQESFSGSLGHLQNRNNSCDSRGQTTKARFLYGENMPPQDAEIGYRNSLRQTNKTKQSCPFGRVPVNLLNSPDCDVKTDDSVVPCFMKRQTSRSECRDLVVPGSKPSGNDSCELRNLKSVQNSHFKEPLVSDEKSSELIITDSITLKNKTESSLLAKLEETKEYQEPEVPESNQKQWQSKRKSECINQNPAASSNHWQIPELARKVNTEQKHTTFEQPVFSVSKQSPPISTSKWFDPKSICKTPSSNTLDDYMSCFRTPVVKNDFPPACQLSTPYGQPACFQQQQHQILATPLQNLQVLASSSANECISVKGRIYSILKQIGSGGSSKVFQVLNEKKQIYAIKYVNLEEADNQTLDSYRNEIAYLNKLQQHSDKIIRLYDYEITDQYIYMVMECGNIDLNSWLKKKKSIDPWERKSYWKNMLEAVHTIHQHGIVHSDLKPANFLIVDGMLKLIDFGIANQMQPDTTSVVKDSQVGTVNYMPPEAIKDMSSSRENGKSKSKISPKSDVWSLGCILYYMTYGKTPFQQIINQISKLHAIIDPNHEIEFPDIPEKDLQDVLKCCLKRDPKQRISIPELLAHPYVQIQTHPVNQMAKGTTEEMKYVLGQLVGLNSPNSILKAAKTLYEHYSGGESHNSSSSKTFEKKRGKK

[5] = target: Serine/threonine-protein kinase N3 (Homo sapiens, UniProt Q6P5Z2)
Further: in the data inactive means no Kd found up to 30 µM.

Cell division cycle 7-related protein kinase, sequence (O00311 whole entry): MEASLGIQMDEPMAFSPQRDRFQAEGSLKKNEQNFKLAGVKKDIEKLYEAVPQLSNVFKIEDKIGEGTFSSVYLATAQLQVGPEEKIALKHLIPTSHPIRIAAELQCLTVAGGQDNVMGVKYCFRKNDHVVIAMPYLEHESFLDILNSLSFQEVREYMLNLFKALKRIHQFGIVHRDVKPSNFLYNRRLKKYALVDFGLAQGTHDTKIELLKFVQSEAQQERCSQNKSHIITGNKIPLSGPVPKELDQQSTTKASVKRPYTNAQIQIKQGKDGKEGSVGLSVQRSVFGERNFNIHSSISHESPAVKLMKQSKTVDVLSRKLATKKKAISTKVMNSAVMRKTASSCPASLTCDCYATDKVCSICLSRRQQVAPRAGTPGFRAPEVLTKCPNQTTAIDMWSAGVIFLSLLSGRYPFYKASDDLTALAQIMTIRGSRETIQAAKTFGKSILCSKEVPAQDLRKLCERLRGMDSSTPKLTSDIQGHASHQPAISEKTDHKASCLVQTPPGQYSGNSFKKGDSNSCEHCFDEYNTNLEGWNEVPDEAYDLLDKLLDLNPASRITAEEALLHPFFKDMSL
Serine/threonine-protein kinase N3, sequence (Q6P5Z2 whole entry): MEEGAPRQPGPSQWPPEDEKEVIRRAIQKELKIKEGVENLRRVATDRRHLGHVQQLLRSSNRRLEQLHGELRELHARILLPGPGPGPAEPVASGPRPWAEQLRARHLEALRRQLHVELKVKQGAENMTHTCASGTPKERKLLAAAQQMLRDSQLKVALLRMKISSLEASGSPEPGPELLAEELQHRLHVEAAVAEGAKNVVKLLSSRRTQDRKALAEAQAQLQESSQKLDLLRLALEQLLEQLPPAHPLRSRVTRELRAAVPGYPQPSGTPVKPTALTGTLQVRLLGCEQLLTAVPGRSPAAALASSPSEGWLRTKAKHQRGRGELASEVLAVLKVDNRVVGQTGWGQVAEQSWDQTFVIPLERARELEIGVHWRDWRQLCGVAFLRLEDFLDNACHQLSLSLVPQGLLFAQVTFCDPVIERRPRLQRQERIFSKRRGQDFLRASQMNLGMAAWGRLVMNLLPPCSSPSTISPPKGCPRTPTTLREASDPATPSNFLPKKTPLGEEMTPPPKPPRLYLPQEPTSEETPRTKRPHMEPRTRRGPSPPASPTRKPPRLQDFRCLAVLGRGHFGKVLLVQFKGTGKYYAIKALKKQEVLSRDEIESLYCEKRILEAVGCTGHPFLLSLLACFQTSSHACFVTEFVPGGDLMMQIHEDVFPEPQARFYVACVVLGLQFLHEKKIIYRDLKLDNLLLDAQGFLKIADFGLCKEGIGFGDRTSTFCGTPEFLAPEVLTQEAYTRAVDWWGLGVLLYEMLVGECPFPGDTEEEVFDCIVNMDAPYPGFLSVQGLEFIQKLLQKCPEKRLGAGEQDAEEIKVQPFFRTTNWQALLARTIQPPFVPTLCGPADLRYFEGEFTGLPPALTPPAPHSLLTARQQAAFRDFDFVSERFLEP

Row | Kd [1] | Kd [2] | Kd [4] | Kd [5] | SMILES | Kd [3]
1 | > 30 µM (inactive) | > 30 µM (inactive) |  |  | O=c1[nH]c([C@@H]2CCCN2)nc2c1oc1ccc(Cl)cc12 | > 30 µM (inactive)
2 | > 30 µM (inactive) | > 30 µM (inactive) | > 30 µM (inactive) |  | COc1ccc(-c2ccc3ncc4c(c3c2)n(-c2ccc(N3CCNCC3)c(C(F)(F)F)c2)c(=O)n4C)cn1 [BGT-226 FREE BASE] | > 30 µM (inactive)
3 |  |  | > 30 µM (inactive) |  | COc1cccc(Nc2ncnn3ccc(CN4CC[C@@H](N)[C@H](O)C4)c23)c1 [BMS-690514] | > 30 µM (inactive)
4 |  | > 30 µM (inactive) |  |  | CCOc1ccn(-c2ccc(F)cc2)c(=O)c1C(=O)Nc1ccc(Oc2ccnc(N)c2Cl)c(F)c1 [BMS-777607] | 
5 |  | > 30 µM (inactive) | > 30 µM (inactive) |  | COc1cc2nccc(Oc3ccc(NC(=O)C4(C(=O)Nc5ccc(F)cc5)CC4)cc3)c2cc1OC [CABOZANTINIB] | 
6 |  | > 30 µM (inactive) |  | > 30 µM (inactive) | COc1cc2c(Oc3ccc4[nH]c(C)cc4c3F)ncnc2cc1OCCCN1CCCC1 [CEDIRANIB] | 
7 | > 30 µM (inactive) |  |  |  | CC[C@@](C)(Nc1ccnc(-c2c[nH]c3ncccc23)n1)C(=O)NCC(F)(F)F [DECERNOTINIB] | > 30 µM (inactive)
8 | 0.843 µM (active) | > 30 µM (inactive) | > 30 µM (inactive) |  | COc1cc(Nc2ncc(F)c(Nc3ccc4c(n3)N(COP(=O)(O)O)C(=O)C(C)(C)O4)n2)cc(OC)c1OC [FOSTAMATINIB] | > 30 µM (inactive)
9 | > 30 µM (inactive) |  | > 30 µM (inactive) | > 30 µM (inactive) | O=S(=O)(c1cccc2c(O)nccc12)N1CCCNCC1 [HYDROXYFASUDIL] | > 30 µM (inactive)
10 |  | > 30 µM (inactive) |  |  | CC1(C)CNc2cc(NC(=O)c3cccnc3NCc3ccncc3)ccc21 [MOTESANIB] | 
11 | > 30 µM (inactive) | > 30 µM (inactive) | > 30 µM (inactive) | > 30 µM (inactive) | O=C(NC[C@H](O)CO)c1ccncc1Nc1ccc(I)cc1F [PIMASERTIB] | 
12 | > 30 µM (inactive) |  |  |  | C=CC(=O)Nc1cccc(Nc2nc(Nc3ccc(N4CCN(C(C)=O)CC4)cc3OC)ncc2C(F)(F)F)c1 [ROCILETINIB] | 
13 |  | > 30 µM (inactive) |  | > 30 µM (inactive) | Cn1cnc2c(F)c(Nc3ccc(Br)cc3Cl)c(C(=O)NOCCO)cc21 [SELUMETINIB] | 
14 | > 30 µM (inactive) | > 30 µM (inactive) |  | > 30 µM (inactive) | CC(C)(O)CC(=O)NCCn1ccc2ncnc(Nc3ccc(Oc4cccc(C(F)(F)F)c4)c(Cl)c3)c21 [TAK-285] | > 30 µM (inactive)
15 | > 30 µM (inactive) |  |  |  | Cc1cc(C(=O)Nc2cc(Oc3ccc4nc(NC(=O)C5CC5)cn4n3)ccc2C)n(C)n1 [TAK-593] | > 30 µM (inactive)
16 |  | > 30 µM (inactive) |  | > 30 µM (inactive) | COc1cc2c(N3CCN(C(=O)Nc4ccc(OC(C)C)cc4)CC3)ncnc2cc1OCCCN1CCCCC1 [TANDUTINIB] | 
17 | > 30 µM (inactive) |  | > 30 µM (inactive) | > 30 µM (inactive) | CNC(=O)c1cc(COc2nnc(Nc3ccc(Cl)cc3)c3ccoc23)ccn1 [TELATINIB] | > 30 µM (inactive)
18 | 1.31 µM (active) |  | > 30 µM (inactive) | > 30 µM (inactive) | COc1cc2ncnc(Nc3ccc(O)cc3)c2cc1OC [WHI-P131] | > 30 µM (inactive)

Row | SMILES | Kd [1] | Kd [2] | Kd [4] | Kd [5] | Kd [3]
19 | Cc1c(NC(=O)OC[C@@H]2COCCN2)cn2ncnc(Nc3ccc4c(cnn4Cc4cccc(F)c4)c3)c12 [AC-480] | > 30 µM (inactive) |  | > 30 µM (inactive) |  | > 30 µM (inactive)
20 | C=CCn1c(=O)c2cnc(Nc3ccc(N4CCN(C)CC4)cc3)nc2n1-c1cccc(C(C)(C)O)n1 [ADAVOSERTIB] |  | > 30 µM (inactive) | > 30 µM (inactive) | > 30 µM (inactive) | > 30 µM (inactive)
21 | NC[C@@](O)(c1ccc(Cl)cc1)c1ccc(-c2cn[nH]c2)cc1 [AT-13148] | > 30 µM (inactive) |  |  |  | 
22 | CC1(COc2ccc3c(c2)ncn3-c2ccc3cccc(N4CCC(N)CC4)c3n2)COC1 [CRENOLANIB] |  | > 30 µM (inactive) |  | > 30 µM (inactive) | > 30 µM (inactive)
23 | O=S(=O)(c1cccc2cnccc12)N1CCCNCC1 [FASUDIL] |  | > 30 µM (inactive) | > 30 µM (inactive) |  | > 30 µM (inactive)
24 | CCc1nc(C(N)=O)c(Nc2ccc(N3CCC(N4CCN(C)CC4)CC3)c(OC)c2)nc1NC1CCOCC1 [GILTERITINIB] |  |  | > 30 µM (inactive) |  | > 30 µM (inactive)
25 | Cc1c(Cn2c(C)nc3c(C(=O)O)cc(N4CCOCC4)cc32)cccc1C(F)(F)F [GSK-2636771] | > 30 µM (inactive) | > 30 µM (inactive) | > 30 µM (inactive) |  | > 30 µM (inactive)
26 | C[C@]1(O)C[C@@H](c2nc(-c3ccc4ccc(-c5ccccc5)nc4c3)c3c(N)nccn32)C1 [LINSITINIB] |  | > 30 µM (inactive) | > 30 µM (inactive) | > 30 µM (inactive) | 
27 | N#CCNC(=O)c1ccc(-c2ccnc(Nc3ccc(N4CCOCC4)cc3)n2)cc1 [MOMELOTINIB] |  |  | > 30 µM (inactive) |  | 
28 | CN(c1ncccc1CNc1nc(Nc2ccc3c(c2)CC(=O)N3)ncc1C(F)(F)F)S(C)(=O)=O [PF-00562271] |  |  |  | > 30 µM (inactive) | > 30 µM (inactive)
29 | CC(C)CC(=O)Nc1[nH]nc2c1CN(C(=O)C1CCN(C)CC1)C2(C)C [PHA-793887] | > 30 µM (inactive) | > 30 µM (inactive) |  |  | > 30 µM (inactive)
30 | COc1cc(F)c(F)c(Nc2ccc(I)cc2F)c1NS(=O)(=O)C1(C[C@H](O)CO)CC1 [REFAMETINIB] | > 30 µM (inactive) |  |  |  | > 30 µM (inactive)
31 | C=CCN(/C=C1/C(=O)O[C@H](COC)[C@@]2(C)C1=C(O)C(=O)C1=C2[C@H](OC(C)=O)C[C@]2(C)C(=O)CC[C@@H]12)CC=C [SONOLISIB] | > 30 µM (inactive) |  |  |  | > 30 µM (inactive)
